# Measured values as given in US9145373B2, “Certain kynurenine-3-monooxygenase inhibitors, pharmaceutical compositions, and methods of use thereof” (CHDI FOUNDATION, INC., priority 2008, dated 2015).
# Structures can show the parent of a compound that is named as a salt.
# Molecular target: T1, KMO mouse enzyme (Mus musculus, UniProt Q91WN4)
# T1 construct: KMO enzyme prepared at Evotec from mouse liver (4-6 weeks old) via mitochondria isolation; from tissue; host or cells: mouse liver (4-6 weeks old), mitochondria isolation, prepared at Evotec
# T1 sequence (Q91WN4 whole entry): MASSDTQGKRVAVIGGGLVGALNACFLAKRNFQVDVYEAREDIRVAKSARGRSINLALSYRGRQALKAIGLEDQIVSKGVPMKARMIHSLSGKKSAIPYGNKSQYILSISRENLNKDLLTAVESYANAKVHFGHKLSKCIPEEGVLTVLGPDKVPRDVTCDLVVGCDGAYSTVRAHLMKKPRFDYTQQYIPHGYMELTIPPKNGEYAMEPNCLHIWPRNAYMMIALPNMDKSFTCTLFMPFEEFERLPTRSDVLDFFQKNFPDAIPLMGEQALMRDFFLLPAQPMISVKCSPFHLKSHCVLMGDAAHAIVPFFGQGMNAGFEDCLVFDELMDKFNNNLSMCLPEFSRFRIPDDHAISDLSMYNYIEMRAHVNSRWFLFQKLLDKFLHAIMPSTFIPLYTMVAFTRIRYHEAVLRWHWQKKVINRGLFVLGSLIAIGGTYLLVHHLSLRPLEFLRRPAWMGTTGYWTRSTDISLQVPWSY
# Test: KMO mouse enzyme assay: L-Kynurenine hydroxylation to 3-Hydroxy-Kynurenine monitored by LC/MS (MRM)
# Type: biochemical
# Conditions: compound at 10 μM, KMO enzyme from mouse liver mitochondria; for inhibition at 10 µM: read-out: INH.Mouse @ 10 μM
# Method: A method of monitoring L-Kynurenine (KYN) hydroxylation to form 3-Hydroxy-Kynurenine (3OH-KYN) by LC/MS is described. Product is quantified by multiple reaction monitoring (MRM method).
# • Compound: Stock concentrations: 10 mM in 100% DMSO • Enzyme: KMO enzyme prepared at Evotec from mouse liver (4-6 weeks old) via mitochondria isolation as described in the literature • Substrate: L-Kynurenine (Sigma: Cat# K3750, stock concentration: 10 mM in 100 mM potassium phosphate buffer, pH 7.4) Assay Conditions: […]
Structure (SMILES),inhibition at 10 µM [%],INH.Mouse @ 10 μM
CC(=O)N1CCN(C(=O)c2cc(-c3cccc(Cl)c3)ncn2)CC1 [1-{4-[6-(3-Chloro-phenyl)-pyrimidine-4-carbonyl]-piperazin-1-yl}-ethanone],94.9,
O=C(O)c1ccnc(-c2cccc(Cl)c2)c1 [2-(3-Chloro-phenyl)-isonicotinic acid hydrochloride salt],53.5,
"COc1cncc(NC(=O)c2cc(-c3cc(Cl)cc(Cl)c3)ccn2)c1 [4-(3,5-Dichloro-phenyl)-pyridine-2-carboxylic acid (5-methoxy-pyridin-3-yl)-amide]",52.6,
"Cl.O=C(O)c1cc(-c2cc(Cl)cc(Cl)c2)ccn1 [4-(3,5-Dichloro-phenyl)-pyridine-2-carboxylic acid hydrocloride salt]",,76.6
"O=C(Nc1ccccc1)c1cc(-c2cc(Cl)cc(Cl)c2)ccn1 [4-(3,5-Dichloro-phenyl)-pyridine-2-carboxylic acid phenylamide]",59.7,
COc1cncc(NC(=O)c2cc(-c3cccc(Cl)c3)ccn2)c1 [4-(3-Chloro-phenyl)-pyridine-2-carboxylic acid (5-methoxy-pyridin-3-yl)-amide],53.8,
COC(=O)c1cc(-c2cccc(Cl)c2)ccn1 [4-(3-Chloro-phenyl)-pyridine-2-carboxylic acid methyl ester],100,
Cc1ccc(NC(=O)c2cc(-c3cccc(Cl)c3)ccn2)cc1 [4-(3-Chloro-phenyl)-pyridine-2-carboxylic acid p-tolylamide],85.6,
O=C(Nc1ccccc1)c1cc(-c2cccc(Cl)c2)ccn1 [4-(3-Chloro-phenyl)-pyridine-2-carboxylic acid phenylamide],68.4,
O=C(Nc1cccnc1)c1cc(-c2cccc(Cl)c2)ccn1 [4-(3-Chloro-phenyl)-pyridine-2-carboxylic acid pyridin-3-ylamide],52.3,
O=C(Nc1cncnc1)c1cc(-c2cccc(Cl)c2)ccn1 [4-(3-Chloro-phenyl)-pyridine-2-carboxylic acid pyrimidin-5-ylamide],60.8,
O=C(O)c1cc(-c2cccc(Cl)c2)ccn1 [4-(3-Chloro-phenyl)-pyridine-2-carboxylic acid],100,
O=C1CN(C(=O)c2cc(-c3cccc(Cl)c3)ncn2)CCN1 [4-[6-(3-Chloro-phenyl)-pyrimidine-4-carbonyl]-piperazin-2-one],100,
"COC(=O)c1cc(-c2ccc(F)cc2F)ncn1 [6-(2,4-Difluoro-phenyl)-pyrimidine-4-carboxylic acid methyl ester]",100,
O=C(O)c1cc(-c2cc(C(F)(F)F)ccc2F)ncn1 [6-(2-Fluoro-5-trifluoromethyl-phenyl)-pyrimidine-4-carboxylic acid],80.3,
"Cc1ccc(NC(=O)c2cc(-c3ccc(Cl)c(Cl)c3)ncn2)cn1.Cl [6-(3,4-Dichloro-phenyl)-pyrimidine-4-carboxylic acid (6-methyl-pyridin-3-yl)-amide hydrochloride salt]",,94.0

# Now from value to molecule, other results behind:
inhibition at 10 µM [%],Structure (SMILES),INH.Mouse @ 10 μM
43.5,"O=C(Nc1ccccc1)c1cc(-c2ccc(Cl)c(Cl)c2)ccn1 [4-(3,4-Dichloro-phenyl)-pyridine-2-carboxylic acid phenylamide]",
95.5,"COC(=O)c1cc(-c2ccc(Cl)c(Cl)c2)nc(C)n1 [6-(3,4-Dichloro-phenyl)-2-methyl-pyrimidine-4-carboxylic acid methyl ester]",
100,"COC(=O)c1ncnc(-c2ccc(Cl)c(Cl)c2)c1F [6-(3,4-Dichloro-phenyl)-5-fluoro-pyrimidine-4-carboxylic acid methyl ester]",
100,"Cn1cc(NC(=O)c2cc(-c3ccc(Cl)c(Cl)c3)ncn2)cn1 [6-(3,4-Dichloro-phenyl)-pyrimidine-4-carboxylic acid (1-methyl-1H-pyrazol-4-yl)-amide]",
96.8,"Cc1ccc(NC(=O)c2cc(-c3ccc(Cl)c(Cl)c3)ncn2)c(C)n1 [6-(3,4-Dichloro-phenyl)-pyrimidine-4-carboxylic acid (2,6-dimethyl-pyridin-3-yl)-amide]",
84.2,"Cc1ncccc1NC(=O)c1cc(-c2ccc(Cl)c(Cl)c2)ncn1 [6-(3,4-Dichloro-phenyl)-pyrimidine-4-carboxylic acid (2-methyl-pyridin-3-yl)-amide]",
85.6,"Cc1ncc(NC(=O)c2cc(-c3ccc(Cl)c(Cl)c3)ncn2)cn1 [6-(3,4-Dichloro-phenyl)-pyrimidine-4-carboxylic acid (2-methyl-pyrimidin-5-yl)-amide]",
100,"Cc1cc(NC(=O)c2cc(-c3ccc(Cl)c(Cl)c3)ncn2)on1 [6-(3,4-Dichloro-phenyl)-pyrimidine-4-carboxylic acid (3-methyl-isoxazol-5-yl)-amide]",
100,"COc1cncc(NC(=O)c2cc(-c3ccc(Cl)c(Cl)c3)ncn2)c1 [6-(3,4-Dichloro-phenyl)-pyrimidine-4-carboxylic acid (5-methoxy-pyridin-3-yl)-amide]",
100,"Cc1nnc(NC(=O)c2cc(-c3ccc(Cl)c(Cl)c3)ncn2)o1 [6-(3,4-Dichloro-phenyl)-pyrimidine-4-carboxylic acid (5-methyl-[1,3,4]oxadiazol-2-yl)-amide]",
100,"Cc1ccc(NC(=O)c2cc(-c3ccc(Cl)c(Cl)c3)ncn2)cn1 [6-(3,4-Dichloro-phenyl)-pyrimidine-4-carboxylic acid (6-methyl-pyridin-3-yl)-amide]",
95.5,"O=C(NCc1ccncc1)c1cc(-c2ccc(Cl)c(Cl)c2)ncn1 [6-(3,4-Dichloro-phenyl)-pyrimidine-4-carboxylic acid (pyridin-4-ylmethyl)-amide]",
100,"O=C(Nc1nncs1)c1cc(-c2ccc(Cl)c(Cl)c2)ncn1 [6-(3,4-Dichloro-phenyl)-pyrimidine-4-carboxylic acid [1,3,4]thiadiazol-2-ylamide]",
100,"O=C(Nc1ccon1)c1cc(-c2ccc(Cl)c(Cl)c2)ncn1 [6-(3,4-Dichloro-phenyl)-pyrimidine-4-carboxylic acid isoxazol-3-ylamide]",
101,"COC(=O)c1cc(-c2ccc(Cl)c(Cl)c2)ncn1 [6-(3,4-Dichloro-phenyl)-pyrimidine-4-carboxylic acid methyl ester]",
100,"Cc1ccc(NC(=O)c2cc(-c3ccc(Cl)c(Cl)c3)ncn2)cc1 [6-(3,4-Dichloro-phenyl)-pyrimidine-4-carboxylic acid p-tolylamide]",
100,"O=C(Nc1ccccn1)c1cc(-c2ccc(Cl)c(Cl)c2)ncn1 [6-(3,4-Dichloro-phenyl)-pyrimidine-4-carboxylic acid pyridin-2-ylamide]",
83.5,"O=C(Nc1cccnc1)c1cc(-c2ccc(Cl)c(Cl)c2)ncn1 [6-(3,4-Dichloro-phenyl)-pyrimidine-4-carboxylic acid pyridin-3-ylamide]",
90.1,"O=C(Nc1ccncc1)c1cc(-c2ccc(Cl)c(Cl)c2)ncn1 [6-(3,4-Dichloro-phenyl)-pyrimidine-4-carboxylic acid pyridin-4-ylamide]",
95.5,"O=C(Nc1cncnc1)c1cc(-c2ccc(Cl)c(Cl)c2)ncn1 [6-(3,4-Dichloro-phenyl)-pyrimidine-4-carboxylic acid pyrimidin-5-ylamide]",
